Measured values reported in US12036300B2, “Methods and compositions for improving skin” (L'OREAL, priority 2021, dated 2024).

What was measured:
[1] = test system: single cell culture models (Normal Human Epidermal Melanocytes); assay: Melanin synthesis inhibition in single cell culture model; type: cell-based; conditions: FIG. 5
Method: (§1) Tri-culture models, co-culture models, and single cell culture models were treated with a composition containing acetyl trifluoromethylphenyl valylglycine to assess the effects on different skin cells. Specifically, the three cultures for each of the tri-culture models (Normal Human Epidermal Melanocytes, Normal Human Epidermal Keratinocytes, and Normal Human Dermal Fibroblast), co-culture models (Normal Human Epidermal Melanocytes and Normal Human Epidermal Keratinocytes), and single cell culture models (Normal Human Epidermal Melanocytes) were grown for four days. The cultures were then treated once a day for 10 days with a composition containing 10% DMSO, water, and lipoic acid (Composition G) in an amount to deposit […] to the cell culture models, a composition containing 10% DMSO, water, and acetyl trifluoromethylphenyl valylglycine (Composition H) in an amount to deposit […] to the cell culture models, or a composition containing 10% DMSO, water, and acetyl trifluoromethylphenyl valylglycine (Composition I) in an amount to deposit […] to the cell culture models. The media for the cultures was changed each day over the ten-day period.
(§2) After the 10 days, the cells of the culture were lysed and the melanin content was measured using a procedure and equipment similar to that described in Example 2. […]

COX-2 = assay: qRT-PCR gene expression of COX-2 in NHEM after 10 days of treatment; type: cell-based, human; conditions: FIG. 3A
Method: (§3) The efficacy of acetyl trifluoromethylphenyl valylglycine to modulate key gene markers in the inflammatory pathway as it relates to post inflammatory hyperpigmentation conditions was evaluated. Specifically, four well plates were seeded with a single cell culture of normal human epidermal melanocyte (NHEM), and grown in a culture medium (namely, culture medium no. M254500, obtained from ThermoFisher™) and supplemented with Gibco™ human melanocyte growth supplement (namely, Human Melanocyte Growth Supplement-2 no. S0165, obtained from ThermoFisher™) at a density of 10,000 cells/cm^2 for 3 to 4 days.
(§4) The culture medium was then replaced by culture mediums containing different treatments. Specifically, the cell cultures were treated with 10 μL of one of Compositions C-E once a day for ten days (except weekends). After 10 days, the cells were trypsinized and centrifuged at 180×gravity for 7 minutes followed by RNA isolation using a QIAshredder cell lysate homogenizer no. […] The RNA was then quantified using the NanoDrop Spectrophotometer.
(§5) After RNA isolation was completed, samples of 1 μg of RNA from each cell culture was used for cDNA reactions for reverse transcription. […] The ΔΔCt values were then determined for each biological replicate by normalizing to the appropriate untreated control average ΔCt value. The ΔΔCt values were then used to calculate relative quantification (RQ) values.

[2] = test system: human primary melanocytes; assay: Melanin content of human primary melanocyte cultures treated for ten days, with or without prostaglandin E2; type: cell-based; conditions: FIGS. 1 and 2
Method: Six cultures of human primary melanocytes were grown for four days. Thereafter, the cultures were treated with 10 μL of one of Compositions A-E each day for ten days. Composition A contained 0.005 wt. % of acetyl trifluoromethylphenyl valylglycine, 2 wt. % ethanol, and the remainder being water. Composition B contained 0.05 wt. % of acetyl trifluoromethylphenyl valylglycine, 2 wt. % ethanol, and the remainder being water. Composition C contained 30 nM of prostaglandin E2, 2 wt. % ethanol, and the remainder being water. Composition D contained 0.005 wt. % of acetyl trifluoromethylphenyl valylglycine, 30 nM of prostaglandin E2, 2 wt. % ethanol, and the remainder being water. Composition E contained 0.05 wt. % of acetyl trifluoromethylphenyl valylglycine, 30 nM of prostaglandin E2, 2 wt. % ethanol, and the remainder being water. All weight percentages for Compositions A-E were based on the total weight of the respective composition. […]
After the 10 days, the cells of the culture were lysed and the melanin content was measured. Specifically, the cells were stained with Fontana Masion Staining and measured with a plate reader. A BCA assay was performed to quantify the protein concentration. […] To eliminate the melanin content caused by increased NHEM cell number in the system, the final melanin level was calculated by dividing the protein content in each culture. […]

[3] = test system: tri-culture model (Normal Human Epidermal Melanocytes, Normal Human Epidermal Keratinocytes, and Normal Human Dermal Fibroblast); assay: Melanin synthesis inhibition in tri-culture model; type: cell-based; conditions: 100 μM, tri-culture model (K/M/F), once a day for 10 days; FIG. 5
Method: as §1, §2

[4] = test system: co-culture models (Normal Human Epidermal Melanocytes and Normal Human Epidermal Keratinocytes); assay: Melanin synthesis inhibition in co-culture model; type: cell-based; conditions: co-culture on melanocytes and keratinocytes, once a day for 10 days; FIG. 5
Method: as §1, §2

p38 MAPK = assay: qRT-PCR gene expression of p38 in NHEM after 10 days of treatment; type: cell-based, human; conditions: FIG. 3B
Method: as §3, §4, §5

[5] = with 30 nM prostaglandin E2, NHEM
[6] = prostaglandin E2 alone (30 nM), NHEM

| Structure (SMILES) | inhibitory effect on melanin synthesis relative to tri-culture ([1]; melanocytes cultures compared with tri-culture) | melanin synthesis ([1]; melanocytes cultures, once a day for 10 days) | level of COX-2 induced by prostaglandin E2 (COX-2; [5]) | melanin synthesis after induction by prostaglandin E2 ([2]; with 30 nM prostaglandin E2, once a day for ten days, melanin normalised to protein content) | L-Tyrosine-induced melanin synthesis [3] | melanin synthesis [4] | level of P38 MAPK induced by prostaglandin E2 (p38 MAPK; [5]) | COX-2 expression (COX-2; [6]) | melanin production ([2]; prostaglandin E2 alone (30 nM), once a day for ten days) | p38 MAPK expression (p38 MAPK; [6]) |
| --- | --- | --- | --- | --- | --- | --- | --- | --- | --- | --- |
| CC(=O)N(c1cccc(C(F)(F)F)c1)C(C(=O)NCC(=O)O)C(C)C (stereo not shown) [acetyl trifluoromethylphenyl valylglycine] | less than the observed in the tri-culture | an inhibitory effect was observed | significantly attenuated | reduces melanin synthesis | inhibited L-Tyrosine-induced melanin synthesis | did not appear to inhibit melanin synthesis | significantly attenuated | – | – | – |
| CCCCC[C@H](O)/C=C/[C@H]1[C@H](O)CC(=O)[C@@H]1C/C=C\CCCC(=O)O [prostaglandin E2, reference compound] | – | – | – | – | – | – | – | triggered the cascade | stimulates melanin production | triggered the cascade |
